Data taken from ChEMBL document CHEMBL1139449, “Synthesis and inhibitory activity against COX-2 catalyzed prostaglandin production of chrysin derivatives” (Bioorg Med Chem Lett, 2004).

What follows are molecules tested on RAW264.7 (assay: Evaluated for inhibition of COX-2 catalyzed PGE-2 production from LPS induced RAW 264.7 cells). Conditions: Mus musculus.
Format: functional, cell-based

IC50 [nM]	Structure (SMILES)
500	COc1ccc2c(=O)cc(-c3ccc(Cl)cc3)oc2c1
500	O=c1cc(-c2ccccc2)oc2ccccc12 [FLAVONE]
500	CS(=O)(=O)Nc1ccc([N+](=O)[O-])cc1OC1CCCCC1 [NS-398]
1080	COc1c(O)cc(O)c2c(=O)cc(-c3ccccc3)oc12 [WOGONIN]

Each molecule was assayed on RAW264.7 (assay: Evaluated for inhibition of COX-2 catalyzed PGE-2 production from LPS induced RAW 264.7 cells; Range: 0.1-0.5 uM). Conditions: Mus musculus.
Format: functional, cell-based

IC50 [nM]	Structure (SMILES)
< 500	COc1ccc2c(=O)cc(-c3ccc(Cl)c(Cl)c3)oc2c1
< 500	O=c1cc(-c2ccc(Cl)c(Cl)c2)oc2cc(O)ccc12
< 500	COc1cccc2oc(-c3ccc(Cl)c(Cl)c3)cc(=O)c12
